# Entries after “also recorded” stand apart in the source; their conditions may differ. Read-outs that look alike come from different tables or passages of the source.
# What was measured:
# aldehyde dehydrogenase = details: literature; cited from earlier work
# Autistic children = details: cited from earlier work
# MAO-A = details: Youdim & Sandler (1968); cited from earlier work
# patient with Autism = test: Case examples: patients with Autism (ASD), transdermal reserpine (with prior medication history); assay type: in vivo, human; details: for outcome of prior reserpine treatment: reserpine 0.01 mg/day
# Method: The treatment composition is suitably applied in a single daily dose, e.g., 0.01 mg of the MAO-A agonist in 0.05 ml of spray solution applied once every morning.
# Prior to administration of the present invention (transdermal reserpine), the patient's parents were provided with an informed consent documenting the potential risks, benefits and alternatives to this treatment. The patient was started on a dose of Reserpine at a 4× dilution resulting in a total dose of 0.01 mg. […] They were also given approximately 1400 mg of Calcium every morning.
# [1] = system: patient diagnosed with chronic schizophrenia; test: Case example: patient with chronic schizophrenia, transdermal reserpine spray (with prior medication history); assay type: in vivo, human
# [2] = system: patient suffering from depression
# Method: The treatment composition is suitably applied in a single daily dose, e.g., 0.01 mg of the MAO-A agonist in 0.05 ml of transdermal cream applied once every morning. Caffeine may also be included in the composition to compensate for the anti-hypertensive effect of the preferred reserpine; the caffeine may suitably be included in an amount from about 50-100 mg/dose.
# Treatment was in the form of 0.01 mg of reserpine per 0.05 ml of transdermal cream, applied transdermally once a day in the morning.
# The treatment consisted of 0.01 mg of reserpine per 0.05 ml of cream, applied transdermally by rubbing the cream into the skin once a day in the morning.
# The treatment consisted of 0.01 mg of the reserpine per 0.05 ml of cream, applied transdermally by rubbing the cream into the skin once a day in the morning.
# The patient discontinued the use of nortriptyline and the same day started the treatment of the present invention, using 0.01 mg of the reserpine per 0.05 ml cream, applied transdermally by rubbing the cream into the skin once a day in the morning.
# The patient then started the treatment of the present invention, using 0.01 mg of the MAO-A activity stimulator (reserpine) per 0.05 ml cream, applied transdermally by rubbing the cream into the skin once a day in the morning.
# schizophrenic patients = details: Shepherd and Watt 1956; 0.75 mg per day; cited from earlier work
# [3] = in the human body; cited from earlier work
# [4] = system: resting and evoked activity of the brain of patient with Autism; test: Quantitative Electroencephalogram (qEEG, Neuroguide 2.5) in ASD patient; assay type: in vivo, human; details: ASD Example One
# Method: In a paper by Thatcher et al, an Autistic signature was reported. […] Analysis was conducted using Neuroguide 2.5, a widely accepted and statistically valid instrument (Thatcher et al, 2003).
# [5] = ASD Example Three, 0.01 mg per day
# [6] = ASD Example Three, continued 0.01 mg per day
# [7] = ASD Example Two, 0.01 mg per day
# [8] = Schizophrenia Example One, first day
# [9] = Schizophrenia Example One, fourth day
# [10] = Schizophrenia Example One, next 2 days
compound,measurement,setting,value
COC(=O)[C@H]1[C@H]2C[C@@H]3c4[nH]c5cc(OC)ccc5c4CCN3C[C@H]2C[C@@H](OC(=O)c2cc(OC)c(OC)c(OC)c2)[C@@H]1OC [reserpine],effect on aldehyde dehydrogenase,aldehyde dehydrogenase,inhibit aldehyde dehydrogenase
same,average optimum dose,"Autistic children; Lehman et al 1957, oral",5 mg per day
same,optimum dose,"Autistic children; Lehman et al 1957, oral, improvements only within this range, per day",3 to 7 mg
same,effectiveness in autism,"Autistic children; Macready 2001, doses of 0.25-1.8 mg/day",may be effective in autism
same,effect on MAO-A,MAO-A,activate MAO-A
same,effect of starting dose,"patient with Autism; ASD Example One: person, transdermal, total dose of 0.01 mg",some increased hyperactivity
same,motor hyperactivity,"patient with Autism; ASD Example One, 0.005 mg",mild increase in motor hyperactivity
same,temper outbursts during the course of treatment,"patient with Autism; ASD Example One, 0.005 mg, no quetiapine administration needed",no temper outbursts
same,anxiety,"patient with Autism; ASD Example One, after three weeks of treatment",markedly decreased amount of anxiety
same,"social interactions, language and attention","patient with Autism; ASD Example One, after three weeks, reduced dose 0.005 mg transdermal","significant improvements in their social interactions, language, and attention; also recorded: started using several meaningful sentences in succession"
same,“stimming” (banging of the plastic sticks),"patient with Autism; ASD Example Three: person, transdermal reserpine 0.01 mg per day, immediately",reduced to only infrequent occurrence
same,speech after 2 months,"patient with Autism; ASD Example Three, 0.01 mg","shouted out very clearly the words, “I'm hungry”"
same,behavior by the second day of administration,patient with Autism; [5],left their clothes on without supervision
same,social response and language comprehension (parents' report),patient with Autism; [5],will now look at them and smile when spoken to and appears to understand language better
same,speech within the first 30 days,patient with Autism; [5],started making some new speech sounds
same,continued course,patient with Autism; [6],"subtle slow improvements in social behavior, speech, attention span, and awareness and interaction with their environment"
same,side effects,patient with Autism; [6],without any side effects
same,attention span,"patient with Autism; ASD Example Two: person, transdermal reserpine 0.01 mg per day, immediately",increase attention span
same,affectionate behavior,patient with Autism; [7],become more affectionate toward their parents and grandparents
same,speech,patient with Autism; [7],all of their speech is clear and comprehensible
same,time they could stay focused on a task,patient with Autism; [7],≥ 30 min
same,effect of increased dose,"patient with Autism; ASD Example Two, 0.015 mg per day, off gluten free diet",very hyperactive and aggressive
same,outcome after dose decreased back,"patient with Autism; ASD Example Two, back to 0.01 mg per day, off gluten free diet","maintained their improvements in speech, social behavior, and attention span"
same,outcome of prior reserpine treatment,patient with Autism; Homeopathic Example One: person,Substantial improvements
same,outcome of prior reserpine treatment,patient with Autism; Homeopathic Example Two: person,substantial improvement
same,urinary calcium excretion,patient with Autism; as a result of reserpine administration,increase in the amount of calcium excreted in the urine
same,side effects after first application,"[1]; Schizophrenia Example One: person, transdermal reserpine via metered sprayer on forearm, Abilify stopped the day before","feeling severely depressed; also recorded: rapid heart rate, and anxiety"
same,time to onset of feeling severely depressed after rubbing the spray into skin,"[1]; Schizophrenia Example One, first application",≤ 30 s
same,effect on symptoms of schizophrenia (report),[1]; [8],"more focused, they had clearer thoughts"
same,time to resolution of side effect symptoms after applying the spray,[1]; [8],2 to 3 h
same,side effects,[1]; [9],none of these side effect symptoms occurred
same,task completion,[1]; [9],completed a list of chores that they gave them without supervision
same,severity of returning side effects,[1]; [10],slightly less severe
same,time to resolution of side effect symptoms after applying the dose,[1]; [10],≤ 2 h
same,behavior when required calcium was not taken,"[1]; Schizophrenia Example One, sixth day, 2,000 mg calcium omitted",became very aggressive
same,effect on blood calcium without additional calcium,[1]; without taking additional calcium daily,can cause hypocalcemia
same,effect on symptoms of depression,"[2]; Depression Example Five, 0.002 mg, other symptoms persisted",alleviation of their symptoms of feeling hopelessness and “doom and gloom”
same,effect on symptoms of depression,"[2]; Depression Example Five, 0.004 mg, third day, fatigue and insomnia still experienced",improvement in their emotions
same,effect on symptoms of depression,"[2]; Depression Example Five, 0.006 mg per day",all of the patient's symptoms of depression were successfully alleviated
same,return of symptoms on long-term treatment,"[2]; Depression Example Five, eight consecutive months, 0.006 mg per day transdermally",no return of the symptoms of depression
same,time to resolution of fatigue and loss of energy after first dose,"[2]; Depression Example Four: person, 0.01 mg of reserpine per 0.05 ml cream transdermally once a day, nortriptyline discontinued",one
same,outcome after dose increase during stressful event,"[2]; Depression Example Four, 0.02 mg for one week",insomnia and fatigue resolved
same,return of symptoms on long-term treatment,"[2]; Depression Example Four, 10 months of consecutive daily treatment, 0.01 mg",no return of the symptoms listed above
same,outcome after return to the lower dose,"[2]; Depression Example Four, returned to 0.01 mg dose",no return of any symptoms of depression
same,time to significant improvement in state of mind after first application,"[2]; Depression Example One: 250-pound person, 0.01 mg of reserpine per 0.05 ml of transdermal cream once a day",four
same,weight lost during the treatment,"[2]; Depression Example One, 0.01 mg transdermal once a day",> 20 pounds
same,status of prior symptoms of depression on continued treatment,"[2]; Depression Example One, 0.01 mg transdermal, consecutive 24-hour dosing regimen",remains free of all of the prior symptoms
same,time from last dose to beginning return of symptoms,"[2]; Depression Example One, dose forgotten for a day",about 32 hours
same,time to freedom from all symptoms after applying the missed dose,"[2]; Depression Example One, dose missed for 72 hours",one
same,marijuana use during the treatment,[2]; Depression Example Three,has not used any marijuana during the treatment
same,time to resolution of pessimism and negative mood aspects after first dose,"[2]; Depression Example Three: 220-pound person, depression and substance abuse, 0.01 mg of reserpine per 0.05 ml of cream transdermally once a day",two
same,cravings for substances of abuse,"[2]; Depression Example Three, after first dose 0.01 mg",no cravings for marijuana or alcohol
same,outcome after dose decrease,"[2]; Depression Example Three, dose decreased to 0.0075 mg of reserpine",symptoms resolved that same day
same,weight lost,"[2]; Depression Example Three, first 60 days",five
same,weight loss after resuming the treatment,[2]; Depression Example Two,1-2 pound per week
same,time to increased energy after applying the dose,"[2]; Depression Example Two: 175-pound person, 0.01 mg of reserpine per 0.05 ml of cream transdermally once a day",one
same,time to resolution of all perceptible symptoms after first application (except slight problems with memory),"[2]; Depression Example Two, 0.01 mg transdermal",≤ 10 h
same,return of symptoms during treatment,"[2]; Depression Example Two, 30 consecutive days",no return of their symptoms
same,time to resolution of symptoms after resuming the treatment,"[2]; Depression Example Two, after 10 day interruption",one
same,total weight lost,"[2]; Depression Example Two, first 50 days",15 pounds
same,symptoms during interruption of treatment,"[2]; Depression Example Two, treatment interrupted for 10 days",all of the symptoms returned
same,time to improvement or resolution of symptoms after first application,[2]; each of the depression examples,1 to 4 h
same,course of headache after dose reduction,"[2]; human, in vivo",resolved immediately
same,effect of too high a dose,"[2]; human, in vivo",undesirable increase in the symptoms of depression
same,negative side effects,"[2]; human, in vivo",no significant negative side effects
same,side effect at starting dose,"[2]; human, in vivo",headache that did not resolve spontaneously the first day
same,effect of low dose in schizophrenia,schizophrenic patients,resembling more an inert substance than the drug
same,therapeutic half-life,[3],33 h
same,change in quantitative Electroencephalogram,[4]; after three weeks of treatment (FIG. 5),significant change in their quantitative Electroencephalogram
same,High Beta activity in qEEG,"[4]; increased after starting HBOT, after starting transdermal reserpine",appears to subside

# Source: patent US9364474B2, “Method for treatment of neurologic dysfunction” (MedDEV, Inc., priority 2004, dated 2016)
